From patent publication US20250368649A1, “TETRAHYDROPYRIDOPYRIMIDINE PAN-KRAS INHIBITORS” (Mirati Therapeutics, Inc., priority 2022, published 2025) come the findings set out here.

The target in one experiment is KRas WT (Homo sapiens, UniProt P01116). The experiment is described as follows: KRas binding assay (TR-FRET displacement), KRas WT. Particulars: single point, 10 nM compound.
A further experiment addresses KRas G12A (Homo sapiens, UniProt P01116, G12A). Format: binding. Particulars: single point, 10 nM compound, read-out: Binding to KRas (% inhibition at 10 nM) G12A.
In the next experiment the target is KRas G12C (Homo sapiens, UniProt P01116, G12C). The format is binding. Particulars: single point, 10 nM compound, read-out: Binding to KRas (% inhibition at 10 nM) G12C.
The next experiment deals with KRas G12S (Homo sapiens, UniProt P01116, G12S). Format: binding. Particulars: single point, 10 nM compound, read-out: Binding to KRas (% inhibition at 10 nM) G12S.
In another experiment the target is KRas G13D (Homo sapiens, UniProt P01116, G13D). Format: binding. The following applies: single point, 10 nM compound, read-out: Binding to KRas (% inhibition at 10 nM) G13D.
The next experiment has as its target KRas Q61H (Homo sapiens, UniProt P01116, Q61H). The experiment is described as follows: KRas binding assay (TR-FRET displacement), KRas Q61H. Particulars: single point, 10 nM compound.
A further experiment concerns MKN1 cells. The experiment is described as follows: Inhibition of KRas-mediated phosphorylation of ERK (Cisbio HTRF pERK), MKN1 cells. Particulars: Homo sapiens, MKN-1, 3 hour compound incubation, Cisbio pERK HTRF. The format is cell-based. The gist of the method: (§1)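 Day 1: 6,000 cells/well plated, RPMI + 10% FBS.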
For a further experiment, the system named is PSN1 cells. The experiment is described as follows: Inhibition of KRas-mediated phosphorylation of ERK (Cisbio HTRF pERK), PSN1 cells. The format is cell-based. The following applies: Homo sapiens, PSN1, 3 h, 3 hour compound incubation, Cisbio pERK HTRF. The method, boiled down:
as §1

A further experiment concerns ASPC1 cells. The experiment is described as follows: Inhibition of KRas-mediated phosphorylation of ERK (Cisbio HTRF pERK), ASPC1 cells. The format is cell-based. The following applies: Homo sapiens, AsPC-1 cells; for IC50: ASPC1, 3 h, 3 hr compound incubation, Cisbio pERK HTRF; for inhibition at 0.1 µM: ASPC1, single point at 100 nM, 3 hrs compound incubation.
In another experiment the test system is H727 cells. The experiment is described as follows: Inhibition of KRas-mediated phosphorylation of ERK (Cisbio HTRF pERK), H727 cells. The format is cell-based. The following applies: Homo sapiens; for IC50: NCI-H727, 3 h, 3 hr compound incubation, Cisbio pERK HTRF; for inhibition at 0.1 µM: NCI-H727, single point at 100 nM, 3 hrs compound incubation.
The subject of the next experiment is A549 cells. In words: Inhibition of KRas-mediated phosphorylation of ERK (Cisbio HTRF pERK), A549 cells. The format is cell-based. The following applies: Homo sapiens; for IC50: A549, 3 h, 3 hr compound incubation, Cisbio pERK HTRF; for inhibition at 0.1 µM: single point at 100 nM, 3 hrs compound incubation.
Another experiment deals with H460 cells. In words: Inhibition of KRas-mediated phosphorylation of ERK (Cisbio HTRF pERK), H460 cells. The format is cell-based. The following applies: Homo sapiens, NCI-H460, 3 h, 3 hr compound incubation, Cisbio pERK HTRF.
The next experiment concerns HCT116 cells. In words: Inhibition of KRas-mediated phosphorylation of ERK (Cisbio HTRF pERK), HCT116 cells. Format: cell-based. The following applies: Homo sapiens, HCT-116, 3 h, 3 hr compound incubation, Cisbio pERK HTRF.
The next experiment deals with H358 cells. The experiment is described as follows: Inhibition of KRas-mediated phosphorylation of ERK (Cisbio HTRF pERK), H358 cells. The format is cell-based. The following applies: Homo sapiens; for IC50: NCI-H358, 3 h, 3 hr compound incubation, Cisbio pERK HTRF; for inhibition at 0.1 µM: NCI-H358, single point at 100 nM, 3 hrs compound incubation.
The next experiment addresses KRas G12D (Homo sapiens, UniProt P01116, G12D). The experiment is described as follows: biochemical. The following applies: Binding to KRas (IC50 nM) G12D, TR-FRET displacement, KRas G12D.
The target in a further experiment is KRas G12R (Homo sapiens, UniProt P01116, G12R). The experiment is described as follows: biochemical. Particulars: Binding to KRas (IC50 nM) G12R, TR-FRET displacement, KRas G12R.
The target in the next experiment is KRas G12V (Homo sapiens, UniProt P01116, G12V). The experiment is described as follows: biochemical. Particulars: Binding to KRas (IC50 nM) G12V, TR-FRET displacement, KRas G12V.
KRas G12V, sequence (P01116 1-169 isoform P01116-2 G12V): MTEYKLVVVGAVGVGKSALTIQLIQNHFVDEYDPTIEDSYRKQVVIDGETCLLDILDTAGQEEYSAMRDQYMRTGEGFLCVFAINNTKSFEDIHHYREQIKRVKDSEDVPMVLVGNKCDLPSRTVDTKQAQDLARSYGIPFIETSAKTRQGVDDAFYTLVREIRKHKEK

KRas G12A, sequence (P01116 1-169 isoform P01116-2 G12A): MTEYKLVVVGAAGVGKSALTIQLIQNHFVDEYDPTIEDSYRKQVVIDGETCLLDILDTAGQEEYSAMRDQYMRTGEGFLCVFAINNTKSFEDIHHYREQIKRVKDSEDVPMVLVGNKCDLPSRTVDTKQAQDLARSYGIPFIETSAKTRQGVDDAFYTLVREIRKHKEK
KRas Q61H, sequence (P01116 1-169 isoform P01116-2 Q61H): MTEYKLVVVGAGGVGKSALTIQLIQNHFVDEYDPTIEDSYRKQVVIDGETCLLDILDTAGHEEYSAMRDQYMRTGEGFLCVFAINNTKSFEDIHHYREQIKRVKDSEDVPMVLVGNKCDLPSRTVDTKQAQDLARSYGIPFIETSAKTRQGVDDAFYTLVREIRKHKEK
KRas G13D, sequence (P01116 1-169 isoform P01116-2 G13D): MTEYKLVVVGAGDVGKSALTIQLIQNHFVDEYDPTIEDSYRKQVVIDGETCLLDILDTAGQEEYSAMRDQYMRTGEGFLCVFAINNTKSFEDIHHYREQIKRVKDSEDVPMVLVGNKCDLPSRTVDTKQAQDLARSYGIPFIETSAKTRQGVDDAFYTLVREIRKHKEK
KRas G12R, sequence (P01116 1-169 isoform P01116-2 G12R): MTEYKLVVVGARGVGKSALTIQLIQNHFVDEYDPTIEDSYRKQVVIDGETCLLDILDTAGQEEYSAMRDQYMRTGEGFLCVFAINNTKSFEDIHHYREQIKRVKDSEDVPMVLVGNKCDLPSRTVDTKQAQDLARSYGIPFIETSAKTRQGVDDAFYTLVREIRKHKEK
KRas WT, sequence (P01116 1-169 isoform P01116-2): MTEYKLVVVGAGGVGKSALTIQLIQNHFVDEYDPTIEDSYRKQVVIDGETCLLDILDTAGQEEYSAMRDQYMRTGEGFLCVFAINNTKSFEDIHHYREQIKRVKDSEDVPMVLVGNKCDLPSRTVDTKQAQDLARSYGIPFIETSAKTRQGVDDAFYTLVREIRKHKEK
KRas G12C, sequence (P01116 1-169 isoform P01116-2 G12C): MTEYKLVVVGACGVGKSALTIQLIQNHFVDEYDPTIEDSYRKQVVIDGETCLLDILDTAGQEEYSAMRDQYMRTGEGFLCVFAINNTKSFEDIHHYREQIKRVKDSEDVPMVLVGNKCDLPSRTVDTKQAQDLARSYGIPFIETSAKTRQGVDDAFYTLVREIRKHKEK
KRas G12D, sequence (P01116 1-169 isoform P01116-2 G12D): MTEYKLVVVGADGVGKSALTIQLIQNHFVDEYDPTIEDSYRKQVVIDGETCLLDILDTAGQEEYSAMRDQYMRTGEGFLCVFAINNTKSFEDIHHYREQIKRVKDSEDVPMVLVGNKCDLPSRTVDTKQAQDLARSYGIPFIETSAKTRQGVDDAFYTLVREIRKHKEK
KRas G12S, sequence (P01116 1-169 isoform P01116-2 G12S): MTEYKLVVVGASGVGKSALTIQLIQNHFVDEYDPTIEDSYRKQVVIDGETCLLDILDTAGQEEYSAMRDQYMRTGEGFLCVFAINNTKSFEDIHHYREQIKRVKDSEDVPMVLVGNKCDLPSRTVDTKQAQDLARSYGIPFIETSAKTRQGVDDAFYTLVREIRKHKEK

Take `CCNC(=O)c1nn2c(c1C)CN(c1nc(OC[C@@]34CCCN3C[C@H](F)C4)nc3c1CCN(c1cc(O)cc4ccc(F)c(CC)c14)C3)CCC2` [Example 379, N-ethyl-5-(7-(8-ethyl-7-fluoro-3-hydroxynaphthalen-1-yl)-2-(((2R,7aS)-2-fluorohexahydro-1H-pyrrolizin-7a-yl)methoxy)-5,6,7,8-tetrahydropyrido[3,4-d]pyrimidin-4-yl)-3-methyl-5,6,7,8-tetrahydro-4H-pyrazolo[1,5-a][1,4]diazepine-2-carboxamide]: the inhibition at 0.01 µM on KRas WT came to 93%; on KRas G12A, 96%; on KRas G12C, 99%; on KRas G12S it was 98%; at KRas G13D, 92%; on KRas Q61H it was 92%. Also, the IC50 stood at 12.3 nM with MKN1 cells; 5330 nM in the experiment with PSN1 cells; 2 nM in the experiment with ASPC1 cells; 3 nM in the experiment with H727 cells; 17 nM with A549 cells; 33 nM in the experiment on H460 cells. Besides, the IC50 in the experiment with HCT116 cells is 159 nM; in the experiment on H358 cells it was 3 nM; at KRas G12D, < 2 nM; at KRas G12R, < 2 nM; on KRas G12V, < 2 nM. The inhibition at 0.1 µM with A549 cells was 91%; with H358 cells, 105%.
Turning to `CCc1c(F)ccc2cc(O)cc(N3CCc4c(nc(OC[C@@]56CCCN5C[C@H](F)C6)nc4N4CCCn5nc(C(=O)NC)c(C)c5C4)C3)c12` [Example 380, 5-(7-(8-ethyl-7-fluoro-3-hydroxynaphthalen-1-yl)-2-(((2R,7aS)-2-fluorohexahydro-1H-pyrrolizin-7a-yl)methoxy)-5,6,7,8-tetrahydropyrido[3,4-d]pyrimidin-4-yl)-N,3-dimethyl-5,6,7,8-tetrahydro-4H-pyrazolo[1,5-a][1,4]diazepine-2-carboxamide], the inhibition at 0.01 µM at KRas WT was found to be 93%; on KRas G12A, 96%; on KRas G12C, 99%; at KRas G12S, 99%; on KRas G13D it was 94%; on KRas Q61H it was 95%. The IC50 in the experiment with MKN1 cells amounted to 10.8 nM; in the experiment on PSN1 cells, 4720 nM; in the experiment with ASPC1 cells, 2 nM; with H727 cells, 5 nM; in the experiment on A549 cells, 2 nM; in the experiment on H460 cells, 30 nM. The IC50 was 95 nM with HCT116 cells; 3 nM in the experiment on H358 cells; < 2 nM on KRas G12D; < 2 nM on KRas G12R; < 2 nM on KRas G12V. Moreover, the inhibition at 0.1 µM stood at 94% with ASPC1 cells, 69% with H727 cells, 81% with A549 cells and 93% in the experiment with H358 cells.
For the molecule `CCc1c(F)ccc2cc(O)cc(N3CCc4c(nc(OC[C@@]56CCCN5C[C@H](F)C6)nc4N4CCCn5nc(C(=O)N(C)C(C)C)cc5C4)C3)c12` [Example 381, 5-(7-(8-ethyl-7-fluoro-3-hydroxynaphthalen-1-yl)-2-(((2R,7aS)-2-fluorohexahydro-11H-pyrrolizin-7a-yl)methoxy)-5,6,7,8-tetrahydropyrido[3,4-d]pyrimidin-4-yl)-N-isopropyl-N-methyl-5,6,7,8-tetrahydro-4H-pyrazolo[1,5-a][1,4]diazepine-2-carboxamide], the inhibition at 0.01 µM on KRas WT was determined as 97%; at KRas G12A, 97%; on KRas G12C, 99%; on KRas G12S, 99%; on KRas G13D, 97%; at KRas Q61H, 97%. Further, the IC50 in the experiment with MKN1 cells worked out at 7 nM; in the experiment with PSN1 cells it was 3620 nM; in the experiment on ASPC1 cells it was 2 nM; in the experiment with H727 cells it was 3 nM; in the experiment with A549 cells, 7 nM; in the experiment on H460 cells, 11 nM. In addition, the IC50 in the experiment on HCT116 cells was 45 nM; with H358 cells, 1 nM; at KRas G12D, < 2 nM; on KRas G12R, < 2 nM; at KRas G12V, < 2 nM. Also, the inhibition at 0.1 µM is 85% with A549 cells and 98% with H358 cells.
As to `CCc1c(F)ccc2cc(O)cc(N3CCc4c(nc(OC[C@@]56CCCN5C[C@H](F)C6)nc4N4CCCn5nc(C(=O)N(C)CCOC)cc5C4)C3)c12` [Example 382, 5-(7-(8-ethyl-7-fluoro-3-hydroxynaphthalen-1-yl)-2-(((2R,7aS)-2-fluorohexahydro-1H-pyrrolizin-7a-yl)methoxy)-5,6,7,8-tetrahydropyrido[3,4-d]pyrimidin-4-yl)-N-(2-methoxyethyl)-N-methyl-5,6,7,8-tetrahydro-4H-pyrazolo[1,5-a][1,4]diazepine-2-carboxamide], the inhibition at 0.01 µM turned out to be 97% at KRas WT; 98% at KRas G12A; 100% at KRas G12C; 99% on KRas G12S; 98% at KRas G13D; 97% at KRas Q61H. In addition, the IC50 with MKN1 cells was found to be 8.4 nM; with PSN1 cells it was 2290 nM; with ASPC1 cells, 2 nM; in the experiment with H727 cells, 4 nM; with A549 cells, 15 nM; with H460 cells it was 25 nM. Further, the IC50 was 51 nM with HCT116 cells; 1 nM with H358 cells; < 2 nM on KRas G12D; < 2 nM at KRas G12R; < 2 nM on KRas G12V. Besides, the inhibition at 0.1 µM in the experiment with A549 cells came to 80%; in the experiment with H358 cells, 99%.
As for `CCc1c(F)ccc2cc(O)cc(N3CCc4c(nc(OC[C@@]56CCCN5C[C@H](F)C6)nc4N4CCCn5nc(C(=O)N(C)C6CC6)cc5C4)C3)c12` [Example 383, N-cyclopropyl-5-(7-(8-ethyl-7-fluoro-3-hydroxynaphthalen-1-yl)-2-(((2R,7aS)-2-fluorohexahydro-1H-pyrrolizin-7a-yl)methoxy)-5,6,7,8-tetrahydropyrido[3,4-d]pyrimidin-4-yl)-N-methyl-5,6,7,8-tetrahydro-4H-pyrazolo[1,5-a][1,4]diazepine-2-carboxamide], the inhibition at 0.01 µM on KRas WT worked out at 97%; on KRas G12A, 96%; on KRas G12C, 99%; on KRas G12S it was 99%; at KRas G13D, 97%; on KRas Q61H, 98%. For the same molecule, the IC50 was 7.8 nM with MKN1 cells; 3680 nM in the experiment with PSN1 cells; 1 nM in the experiment on ASPC1 cells; 2 nM in the experiment on H727 cells; 5 nM with A549 cells; 13 nM in the experiment with H460 cells. The IC50 in the experiment with HCT116 cells was 73 nM; in the experiment on H358 cells it was 2 nM; at KRas G12D, < 2 nM; at KRas G12R, < 2 nM; on KRas G12V, < 2 nM. Further, the inhibition at 0.1 µM in the experiment on ASPC1 cells turned out to be 97%; with H727 cells, 85%; in the experiment on A549 cells, 90%; with H358 cells, 98%.
